Test results: patent US20200165291A1, “NEUROACTIVE STEROIDS, COMPOSITIONS, AND USES THEREOF” (Sage Therapeutics, Inc., priority 2014, published 2020)

How the values were obtained:
[1] = molecular target: T1, recombinant α1β2γ2 GABAA receptors (Homo sapiens, UniProt P14867+P47870); experiment: Patch clamp electrophysiology, QPatch, LTK cells; type: cell-based; conditions: 10 μM test article, GABA EC20 = 2 μM, read-out: GABA (α1β2γ2) Qpatch in Ltk, % efficacy at 10 μM
T1 construct: expressed in transfected cells
T1 sequence (P14867 28-456): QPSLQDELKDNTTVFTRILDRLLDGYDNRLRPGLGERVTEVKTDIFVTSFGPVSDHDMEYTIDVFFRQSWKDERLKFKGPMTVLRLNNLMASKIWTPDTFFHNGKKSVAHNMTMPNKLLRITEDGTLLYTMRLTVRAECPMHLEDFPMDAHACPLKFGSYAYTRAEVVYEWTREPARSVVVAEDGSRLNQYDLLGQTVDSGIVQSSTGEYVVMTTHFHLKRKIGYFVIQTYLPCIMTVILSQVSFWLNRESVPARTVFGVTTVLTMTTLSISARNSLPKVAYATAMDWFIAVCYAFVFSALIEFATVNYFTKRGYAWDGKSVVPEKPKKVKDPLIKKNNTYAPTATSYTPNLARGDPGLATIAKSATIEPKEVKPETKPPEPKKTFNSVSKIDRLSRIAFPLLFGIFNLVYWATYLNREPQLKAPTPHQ
T1 sequence (P47870 25-512 limits assumed): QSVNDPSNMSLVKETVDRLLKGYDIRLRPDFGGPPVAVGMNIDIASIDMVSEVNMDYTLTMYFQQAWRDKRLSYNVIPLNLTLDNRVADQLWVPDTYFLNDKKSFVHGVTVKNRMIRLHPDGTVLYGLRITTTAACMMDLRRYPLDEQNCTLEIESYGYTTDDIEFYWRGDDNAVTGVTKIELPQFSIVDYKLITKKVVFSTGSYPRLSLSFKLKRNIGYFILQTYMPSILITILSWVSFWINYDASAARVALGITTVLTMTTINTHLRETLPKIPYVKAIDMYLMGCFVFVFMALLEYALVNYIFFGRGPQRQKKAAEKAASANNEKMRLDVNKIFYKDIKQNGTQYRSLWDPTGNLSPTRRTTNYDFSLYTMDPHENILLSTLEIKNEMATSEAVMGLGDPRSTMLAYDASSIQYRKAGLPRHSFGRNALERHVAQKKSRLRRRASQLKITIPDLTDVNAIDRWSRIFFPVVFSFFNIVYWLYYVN
T1 sequence (P18507 40-475 partner): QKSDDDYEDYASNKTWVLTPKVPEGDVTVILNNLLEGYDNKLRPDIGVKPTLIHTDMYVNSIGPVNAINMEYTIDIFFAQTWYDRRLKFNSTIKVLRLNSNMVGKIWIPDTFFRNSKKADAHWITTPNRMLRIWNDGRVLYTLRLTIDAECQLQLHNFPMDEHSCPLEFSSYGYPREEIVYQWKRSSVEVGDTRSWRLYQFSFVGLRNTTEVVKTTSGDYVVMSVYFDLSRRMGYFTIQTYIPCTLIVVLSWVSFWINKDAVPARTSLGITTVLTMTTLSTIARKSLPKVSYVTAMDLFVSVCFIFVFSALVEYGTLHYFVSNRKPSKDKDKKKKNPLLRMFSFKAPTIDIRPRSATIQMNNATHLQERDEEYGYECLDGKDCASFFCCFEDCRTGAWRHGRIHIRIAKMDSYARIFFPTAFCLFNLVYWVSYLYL

male Sprague Dawley rats = experiment: Loss of righting reflex in rats; type: in vivo; conditions: Rat IV, 5 mpk
Description: Loss of Righting Reflex in Rats
The plasma pharmacokinetics and a qualitative assessment of sedation were obtained in male Sprague Dawley rats according to the following procedure. Rats were dosed by intravenous bolus dose (60 seconds) via the foot dorsal vein at doses ranging from 5 to 15 mg/kg in an appropriate vehicle. In order to assess sedation, rats were gently restrained by hand to a lateral position for dose administration. […] If the animal was unable to return to an upright position, the time was recorded as the onset of loss of righting reflex (LRR). […] Sluggish or incomplete righting twice consecutively within a 30 second interval qualifies as a loss of righting reflex. After onset of LRR, animals were assessed every 5 minutes in the same manner. Recovery of righting reflex is defined as the ability of a rat to right itself completely within 20 seconds of being placed in dorsal recumbency. The duration of LRR is defined as the time interval between LRR and the return of righting reflex.

[2] = test system: PTZ-treated male CD-1 mice; experiment: Acute PTZ (pentylenetetrazol-induced seizure) method in mice; type: in vivo; conditions: Mus musculus, PO (oral administration), latency to tonic seizures, read-out: Anticonvulsive Effect Dose (minimal effective anticonvulsant dose)
Description: The anticonvulsant effect of test compounds were assessed in the pentylenetetazol-induced seizure assay in mice similar to methods described in Giardina & Gasior (2009) Curr Protoc Pharmacol., Chapter 5. Male CD-1 mice were housed in groups of five under controlled conditions (temperature of 22±2° C. and 12:12 light-dark cycle, lights on at 8:00 am) and water and food were available ad libitum. The mice were housed for 1 week prior to behavioral testing, at which time they weighed 25-35 g. Pentylenetetrazol (PTZ, Sigma) was dissolved in sterile 0.9% saline at a concentration of 12 mg/mL concentration for subcutaneous administration. Test compounds were formulated and administered via oral gavage or intraperitoneal injection at a predetermined time-point (typically 30 or 60 minutes) prior to PTZ injection. All solutions were made fresh and were given in a volume of 10 ml/kg body weight.
Mice were acclimated to the test room for at least 30 min before compound administration. Mice were randomized into at least four test groups (vehicle and at least three doses of the test compound) with 10 mice per group. […] Following the drug pretreatment time the mice were injected s.c. with PTZ (120 mg/kg). Immediately following the PTZ injection, mice were individually placed into observation chambers (25×15×15 cm) and a three-channel timer was started. Each mouse was continuously observed for 30 min and the following behaviors were recorded by observers blinded to the treatments: 1) latency to clonic convulsions that persist for 3 sec and followed by an absence of righting reflex 2) latency to tonic convulsions, characterized by the rigid extension of all four limbs that exceeded a 90 degree angle with the body 3) latency to death 4) number of clonic and tonic convulsions. Data are presented as mean±S.E.M and one-way analysis of variance with Dunnett's or Bonferroni's post-hoc test was used to detect significant differences in latency and number between the vehicle and dose group. p values<0.05 were regarded as statistically significant.

[3] = molecular target: T2, recombinant α4β3δ GABAA receptors (Homo sapiens, UniProt P28472+P48169); experiment: Patch clamp electrophysiology, manual patch, CHO cells; type: cell-based; conditions: 10 μM test article, GABA EC20 = 2 μM, read-out: GABA (α4β3δ) Manual patch in CHO, % efficacy at 10 μM
T2 construct: expressed in transfected cells; host or cells: CHO cells (transient transfection, Lipofectamine)
T2 sequence (P48169 36-554): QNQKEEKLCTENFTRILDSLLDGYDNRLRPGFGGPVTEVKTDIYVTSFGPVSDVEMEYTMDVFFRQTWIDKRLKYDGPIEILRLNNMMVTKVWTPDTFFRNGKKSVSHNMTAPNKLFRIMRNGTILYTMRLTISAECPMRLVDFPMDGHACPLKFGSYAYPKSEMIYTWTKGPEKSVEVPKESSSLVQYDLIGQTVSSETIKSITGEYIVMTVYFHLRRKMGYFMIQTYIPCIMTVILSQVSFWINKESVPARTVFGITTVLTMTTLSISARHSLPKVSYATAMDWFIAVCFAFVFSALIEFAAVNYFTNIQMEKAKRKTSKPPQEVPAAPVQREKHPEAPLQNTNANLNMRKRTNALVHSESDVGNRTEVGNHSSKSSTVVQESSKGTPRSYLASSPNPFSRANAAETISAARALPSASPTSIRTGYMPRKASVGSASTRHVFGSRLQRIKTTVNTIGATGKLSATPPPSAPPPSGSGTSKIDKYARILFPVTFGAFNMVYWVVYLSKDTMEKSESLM
T2 sequence (P28472 26-473): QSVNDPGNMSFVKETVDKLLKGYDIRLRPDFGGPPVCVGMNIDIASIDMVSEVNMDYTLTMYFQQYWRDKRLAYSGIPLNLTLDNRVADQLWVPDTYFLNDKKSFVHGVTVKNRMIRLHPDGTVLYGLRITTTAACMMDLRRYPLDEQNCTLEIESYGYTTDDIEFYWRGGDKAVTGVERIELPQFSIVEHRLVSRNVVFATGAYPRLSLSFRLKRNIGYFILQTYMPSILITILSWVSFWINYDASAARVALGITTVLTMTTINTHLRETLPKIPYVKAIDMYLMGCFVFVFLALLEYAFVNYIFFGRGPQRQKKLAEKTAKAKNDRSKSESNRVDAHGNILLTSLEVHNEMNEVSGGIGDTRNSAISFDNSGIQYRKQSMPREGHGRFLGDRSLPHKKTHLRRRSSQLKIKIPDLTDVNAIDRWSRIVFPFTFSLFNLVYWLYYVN
T2 sequence (O14764 17-452 partner limits assumed): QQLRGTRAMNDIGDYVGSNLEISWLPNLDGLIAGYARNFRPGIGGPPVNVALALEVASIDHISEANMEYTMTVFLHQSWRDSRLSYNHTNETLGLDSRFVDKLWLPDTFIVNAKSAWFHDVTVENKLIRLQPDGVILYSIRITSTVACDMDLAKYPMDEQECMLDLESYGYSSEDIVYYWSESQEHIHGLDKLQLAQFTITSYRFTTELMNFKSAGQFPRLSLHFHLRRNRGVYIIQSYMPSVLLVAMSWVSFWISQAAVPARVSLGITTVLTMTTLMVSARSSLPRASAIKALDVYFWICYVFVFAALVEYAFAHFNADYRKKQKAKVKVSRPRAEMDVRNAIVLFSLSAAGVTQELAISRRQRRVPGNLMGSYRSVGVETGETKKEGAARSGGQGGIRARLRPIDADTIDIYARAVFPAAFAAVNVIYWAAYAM

[4] = molecular target: [35S]-TBPS binding, rat brain cortical membranes (GABA receptor complex); experiment: [35S]-TBPS binding (steroid inhibition of TBPS binding); conditions: in the presence of 5 μM GABA, read-out: 35S-TBPS Radioligand Displacement
Description: [35S]-t-Butylbicyclophosphorothionate (TBPS) binding assays using rat brain cortical membranes in the presence of 5 μM GABA has been described (Gee et al, J. Pharmacol. Exp. Ther. 1987, 241, 346-353; Hawkinson et al, Mol. Pharmacol. 1994, 46, 977-985; Lewin, A. H et al., Mol. Pharmacol. 1989, 35, 189-194).
Briefly, cortices are rapidly removed following decapitation of carbon dioxide-anesthetized Sprague-Dawley rats (200-250 g). The cortices are homogenized in 10 volumes of ice-cold 0.32 M sucrose using a glass/teflon homogenizer and centrifuged at 1500×g for 10 min at 4° C. The resultant supernatants are centrifuged at 10,000×g for 20 min at 4° C. to obtain the P2 pellets. The P2 pellets are resuspended in 200 mM NaCl/50 mM Na-K phosphate pH 7.4 buffer and centrifuged at 10,000×g for 10 min at 4° C. This washing procedure is repeated twice and the pellets are resuspended in 10 volumes of buffer. Aliquots (100 μL) of the membrane suspensions are incubated with 3 nM [^35S]-TBPS and 5 μL aliquots of test drug dissolved in dimethyl sulfoxide (DMSO) (final 0.5%) in the presence of 5 μM GABA. The incubation is brought to a final volume of 1.0 mL with buffer. Nonspecific binding is determined in the presence of 2 μM unlabeled TBPS and ranged from 15 to 25%. Following a 90 min incubation at room temp, the assays are terminated by filtration through glass fiber filters (Schleicher and Schuell No. 32) using a cell harvester (Brandel) and rinsed three times with ice-cold buffer. Filter bound radioactivity is measured by liquid scintillation spectrometry. Non-linear curve fitting of the overall data for each drug averaged for each concentration is done using Prism (GraphPad). […] The concentration of test compound producing 50% inhibition (IC50) of specific binding and the maximal extent of inhibition (Imax) are determined for the individual experiments with the same model used for the overall data and then the means±SEM.s of the individual experiments are calculated.
Various compounds are or can be screened to determine their potential as modulators of [^35S]-TBPS binding in vitro. These assays are or can be performed in accordance with the above discussed procedures.

| Structure (SMILES) | Emax at 10 µM [1] [%] | Duration of Rat LRR (male Sprague Dawley rats) | minimal effective dose [2] [mg/kg] | Emax at 10 µM [3] [%] | IC50 [4] [nM] |
| --- | --- | --- | --- | --- | --- |
| Cc1nnn(CC(=O)[C@H]2CC[C@H]3[C@@H]4CC[C@@H]5C[C@@](O)(CF)CC[C@@H]5[C@H]4CC[C@]23C)n1 [SF-3] | 100 to 500 | A (A ≤ 20 min) | ≤ 1 | 100 to 500 |  |
| Cc1nnn(CC(=O)[C@H]2CC[C@H]3[C@@H]4CC[C@@H]5C[C@](C)(O)CC[C@@H]5[C@H]4CC[C@]23C)n1 [SA-7] | > 500 | B (B > 20 min) | ≤ 1 | > 500 | 1 to 50 |
| COC[C@@]1(O)CC[C@H]2[C@@H](CC[C@@H]3[C@@H]2CC[C@]2(C)[C@@H](C(=O)Cn4nnc(C)n4)CC[C@@H]32)C1 [SI-4] | 100 to 500 | B (B > 20 min) | ≤ 1 | 100 to 500 |  |
| Cc1cnn(CC(=O)[C@H]2CC[C@H]3[C@@H]4CC[C@@H]5C[C@](C)(O)CC[C@@H]5[C@H]4CC[C@]23C)n1 [SA-3] | 100 to 500 | B (B > 20 min) |  | > 500 | 1 to 50 |
| C[C@@]1(O)CC[C@@H]2[C@H]3CC[C@]4(C)[C@@H](C(=O)Cn5nccn5)CC[C@H]4[C@@H]3C[C@@H](F)[C@H]2C1 [SV-2] | 100 to 500 | B (B > 20 min) | ≤ 1 | 100 to 500 | 50 to 100 |
| Cc1nnn(CC(=O)[C@H]2CC[C@H]3[C@@H]4CC[C@H]5C[C@](C)(O)CC[C@@H]5[C@H]4CC[C@]23C)n1 [SB-5] | 100 to 500 | B (B > 20 min) | ≤ 1 | > 500 |  |
| C[C@@]1(O)CC[C@@H]2[C@H]3CC[C@]4(C)[C@@H](C(=O)Cn5ncnn5)CC[C@H]4[C@@H]3C[C@@H](F)[C@H]2C1 [SV-3] | 100 to 500 | A (A ≤ 20 min) |  | > 500 |  |
| Cc1nnn(CC(=O)[C@H]2CC[C@H]3[C@@H]4C[C@@H](F)[C@H]5C[C@](C)(O)CC[C@@H]5[C@H]4CC[C@]23C)n1 [SV-5] | 100 to 500 | B (B > 20 min) | ≤ 1 | 100 to 500 |  |
| CC[C@@]1(O)CC[C@H]2[C@H](CC[C@@H]3[C@@H]2CC[C@]2(C)[C@@H](C(=O)Cn4nccn4)CC[C@@H]32)C1 [SE-4] | 100 to 500 | A (A ≤ 20 min) |  | > 500 | 50 to 100 |
